Test results: patent US20080004561A1, “Method for Treating Oncological, Virulent and Somatic Diseases, Method for Controlling Treatment Efficiency, Pharmaceutical Agents and Composition for Carrying Out Said Treatment” (priority 2005, published 2008)

How the values were obtained:
[1] = tested on: Staphylococcus aureus VT-2003R; assay: DNase use for treatment of the experimental sepsis (Example 5); type: in vivo; settings: mice, DNase 500 mkg/kg intraperitoneally four times a day, 1-3 days after infection
Description: White not thoroughbred mice were used for experiment. Animals' weight was 24-26 grams. Pathogenic strain of Staphylococcus aureus VT-2003R at 1×10^10 bacteria/animal dose was inoculated to retroorbital sinus of animals. DNase was intraperitoneally administered. Isotonic solution of sodium chloride or Penicillin was administrated to control groups. Each experimental group contained 10 mice. Intraperitoneal administration of compound (DNAase) four times a day at 500 mkg/kg dose continued for 1-3 days after infection. Penicillin was intramusculary administrated. Efficiency of action was estimated by number of animals that stayed alive after the death of the last one in control group. All animals have died to the third day of the experiment in control group. Six animals stayed alive to the third day of the experiment in the group that administrated DNase. Protection was […]. Received data specify an opportunity and efficiency of DNase use for infections' treatment.

[2] = tested on: Erlich carcinoma; assay: Combined use of DNase and Doxorubicin, Erlich tumor growth (Example 3); type: in vivo, mice; settings: Doxorubicin 2 mg/kg intravenously once a day and/or DNase 0.5 mg/kg intraperitoneally four times a day, day 3 to 7; 7th day after transplantation
Experimental: Bovine pancreatic DNase I (Fermentas) and human recombinant DNase […]) were used. DNase I solution for injections were prepared by dissolving of DNase matrix solution in sterile phosphate buffer directly before administration. […] Blood plasma DNA of tumor-bearing mice was received according to technique described above. Highly metastatic and low metastatic stains of mice' Luice lung carcinoma and Erlich carcinoma were used. […] For tumor induction in mice, cells were cultivated until the monolayer, than were detached with trypsin-EDTA solution. Cells were washed trice by centrifuging in phosphate buffer and were resuspensed until their concentration have become 0.5×10^7/ml. Viability was defined by inclusion of methylene blue in hemocytometer. […] Mice of C57B1 line and white not thoroughbred mice from “Rappolovo” animal house were used. Weight of animals was 24-26 grams. Animals were contained in cages, for 6-7 mice per one cage on a standard diet without water restriction. LLC cells in dose of 5×10^5 in 100 mkl of phosphate buffer were injected in soft tissues of thigh. […] Group 1-10 mice transplanted with Erlich carcinoma (control). Group 2-10 mice replanted with Erlich carcinoma. […] Group 3-10 mice replanted with Erlich carcinoma. […] Group 4-10 mice replanted with Erlich carcinoma. […] Results of experiments were estimated according to tumor's growth inhibition (TGI) that were expressed in percents to control data received at last day of DNase injection with standard formula using.

[3] = tested on: HPRT gene's mutations in blood T-lymphocytes; assay: Frequency of HPRT gene's mutations in blood T-lymphocytes, somatic mosaicism model (Example 18); type: in vivo; settings: patients on Neovir after tumor surgery; human recombinant DNase I 200 mkg/kg intravenously 4 times a day during three weeks
Description: Frequency of HPRT gene's mutations in blood T-lymphocytes was studied as a model of somatic mosaicism. Human HPRT gene (chromosome Xq26) encodes enzyme that is constitutionally expressing but not essential and is involved in metabolism of purine nucleotides. Cloning was done according to Bigbee W. method (Bigbee W. Et al., Mutation Res., 1998, v. 397, pp. 119-136).

[4] = tested on: Staphylococcus aureus VT-209; assay: Influence of DNase on bacterial biofilm formation on glass (Example 4); type: cell-based
Experimental: (§1) For estimation of possible mechanisms of DNase action on bacteria' interactions with host's organism we have estimated its influence on biofilm formation.
(§2) Experiments were performed on biofilm models, received at laboratory cultivation on the surface of glass. Non-relative Gram-positive (Staphylococcus aureus VT-209) and Gram-negative (Escherichia coli ATCC25922) bacteria were used.
(§3) Bacteria were sowed at 10^9 bacteria/ml concentrations and were incubated at 37° C. during 72 hours on synthetic M9 media that contains additives necessary for used bacteria strains. DNase was added in amount of 100 mkg/ml right after bacteria' inoculation. Identical volume of phosphate buffer was added to control. Selective vials were taken for analysis every 24 hours.
(§4) Glasses were washed by PBS buffer, fixed, stained with methylene blue and studied with the use of light microscopy.

[5] = tested on: Escherichia coli ATCC25922; assay: as above; type: cell-based
Experimental: as §1, §2, §3, §4

[6] = tested on: DNA from biofilm matrix of Staphylococcus aureus; assay: DNAase I processing of DNA from biofilm matrix, electrophoresis (Example 12); type: biochemical; settings: DNA processed for 3 hours by DNAase I at 37° C.
Description: (§5) Biofilms of Escherichia coli and Staphylococcus aureus were used in experiments. Biofilms were washed off by phosphate buffer from agar. Cells and matrix were separated by centrifuging. Standard phenol-chloroform method was used for DNA extraction from matrix. DNA amount was estimated by spectrophotometric analysis with wave's length 260 nm (SF-46). Received DNA was researched by electrophoresis in 0.8% […] gel with ethidium bromide staining.
(§6) One part of received DNA was processed for 3 hours by DNAase I at 37° C. After electrophoretic separation of processed and not processed DNA it was found out that: […]

[7] = tested on: DNA from biofilm matrix of Escherichia coli; assay: as above; type: biochemical; settings: DNA processed for 3 hours by DNAase I at 37° C.
Description: as §5, §6

[8] = tested on: LLC tumor (highly metastatic strain); assay: DNase I influence on life span of mice transplanted with LLC tumor, highly metastatic strain (Example 16); type: in vivo, C57B1 mice; settings: for Tumor's growth at the last day of DNase treatment: DNase 1 mg/kg two times a day, growth renewed after withdrawal; for 30 day (number of alive\number of dead in group) / 50 day (number of alive\number of dead in group): DNase 1 mg/kg intraperitoneally two times a day
Experimental: Five groups of LLC transplanted mice participated in the experiment.
Group 1—7 mice (control).
Group 2—6 mice were treated with intraperitoneal administration of DNase at 1 mg/kg dose two times a day starting from 3 up to 7 day after tumor transplantation.
Group 3—6 mice were treated with intraperitoneal administration of DNase at 1 mg/kg dose two times a day starting from 3 up to 10 day after tumor transplantation.
Group 4—6 mice were treated with intraperitoneal administration of DNase at 1 mg/kg dose two times a day starting from 3 up to 15 day after tumor transplantation.
Group 5—6 mice were treated with intraperitoneal administration of DNase at 1 mg/kg dose two times a day starting from 3 up to 18 day after tumor transplantation.
Results of experiment were estimated according to animals' survival on the 30 and 50 day after tumor transplantation.

[9] = DNase 100 mkg/ml added right after inoculation, 37° C., 72 hours, M9 media, light microscopy
[10] = DNase 100 mkg/ml, control sowings from vials

## DNase
[1]; 10 per group
  Number of animals that stayed alive to the third day: Six
[1]
  Protection: 67%
[2]
  T% (tumor's growth inhibition): 78%
  Tumor's volume: 20 +/− 6
[3]
  Incidence of HPRT-deficient clones, times less than with immunostimulating therapy only: 3 times
[4]; [9]
  Biofilm formation: normal biofilm was not formed
[4]; [10]
  Colony-forming units (CFU) in comparison with controls: no death of cells
[5]; [9]
  Biofilm formation: normal biofilm was not formed
[5]; [10]
  Colony-forming units (CFU) in comparison with controls: no death of cells
[6]
  DNA band after electrophoresis: disappeared completely
[7]
  DNA band after electrophoresis: disappeared completely
[8]; 2nd group, day 3 to 7
  Tumor's growth at the last day of DNase treatment: significant inhibition of tumor's growth
[8]; 3rd group, day 3 to 10
  Tumor's growth at the last day of DNase treatment: significant inhibition of tumor's growth
[8]; day 3 to 7
  30 day (number of alive\number of dead in group): 0-6
  50 day (number of alive\number of dead in group): 0-6
[8]; day 3 to 10
  30 day (number of alive\number of dead in group): 3-6
  50 day (number of alive\number of dead in group): 0-6
[8]; day 3 to 15
  50 day (number of alive\number of dead in group): 3-3
[8]; DNase 1 mg/kg two times a day from 3rd up to 18th day
  Inhibition of tumor growth at day 18: more than 95%
